According to the supplement of paper PMC10307832:

Experiments:
Assay in all cases: relative viability (nuclei count vs DMSO), 5 days (fraction); higher = more cells survive
[1] = compound: Cn1cc(-c2cnn3c(N)c(Br)c([C@@H]4CCCNC4)nc23)cn1 + Cc1cc(Nc2cc(N3CCN(C)CC3)nc(Sc3ccc(NC(=O)C4CC4)cc3)n2)n[nH]1 [Tozasertib] (partner 0.1 µM)
How it was run: (§1)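 Each reported value is a median over duplicate plates. It expresses relative viability: treated-well nuclei count divided by vehicle-well nuclei count. Lung cancer cell lines in 1536-well plates were dosed by pin tool a day after seeding, alone with one drug or with a fixed anchor-drug dose plus five library-drug doses (not always all listed) in √10 steps, and nuclei were counted after 5 days.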

[2] = compound: Cn1cc(-c2cnn3c(N)c(Br)c([C@@H]4CCCNC4)nc23)cn1 + Cc1nc(Nc2ncc(C(=O)Nc3c(C)cccc3Cl)s2)cc(N2CCN(CCO)CC2)n1 [Dasatinib] (partner 0.075 µM)
How it was run: as §1

[3] = compound: Cn1cc(-c2cnn3c(N)c(Br)c([C@@H]4CCCNC4)nc23)cn1 + COc1cc2c(Oc3ccc(NC(=O)C4(C(=O)Nc5ccc(F)cc5)CC4)cc3F)ccnc2cc1OCCCN1CCOCC1 [Foretinib] (partner 0.25 µM)
How it was run: as §1

[4] = compound: Cn1cc(-c2cnn3c(N)c(Br)c([C@@H]4CCCNC4)nc23)cn1 + N=C(N)NC(=N)NCCc1ccccc1 [Phenformin] (partner 250 µM)
How it was run: as §1

[5] = compound: Cn1cc(-c2cnn3c(N)c(Br)c([C@@H]4CCCNC4)nc23)cn1 + COc1cccc2cc(-c3nc([C@H]4CC[C@H](C(=O)O)CC4)n4ncnc(N)c34)[nH]c12 [OSI-027] (partner 0.5 µM)
How it was run: as §1

[6] = compound: Cn1cc(-c2cnn3c(N)c(Br)c([C@@H]4CCCNC4)nc23)cn1 + CCNC(=O)c1noc(-c2cc(C(C)C)c(O)cc2O)c1-c1ccc(CN2CCOCC2)cc1 [Luminespib] (partner 0.01 µM)
How it was run: as §1

[7] = compound: Cn1cc(-c2cnn3c(N)c(Br)c([C@@H]4CCCNC4)nc23)cn1
How it was run: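 Lung cancer cell lines in 1536-well plates were exposed by pinning to five library-drug doses (not always all listed) √10 apart, following an overnight hold at 37 °C. MetaXpress counted Hoechst-stained nuclei from 4× images taken after 5 days without medium change. Viability is the median ratio of treated-well to vehicle-well nuclei across plates. Plates required control CV below 25% and at least one doubling.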

## NCI-H1623
[1]; first compound 0.05 µM
  relative viability: 0.425
[1]; first compound 0.1581 µM
  relative viability: 0.421
[1]; first compound 0.5 µM
  relative viability: 0.467
[1]; first compound 1.581 µM
  relative viability: 0.41
[1]; first compound 5 µM
  relative viability: 0.38
[2]; first compound 0.05 µM
  relative viability: 0.475
[2]; first compound 0.1581 µM
  relative viability: 0.474
[2]; first compound 0.5 µM
  relative viability: 0.536
[2]; first compound 1.581 µM
  relative viability: 0.477
[2]; first compound 5 µM
  relative viability: 0.399
[3]; first compound 0.05 µM
  relative viability: 0.811
[3]; first compound 0.1581 µM
  relative viability: 0.831
[3]; first compound 0.5 µM
  relative viability: 0.97
[3]; first compound 1.581 µM
  relative viability: 0.844
[3]; first compound 5 µM
  relative viability: 0.606
[4]; first compound 0.05 µM
  relative viability: 0.561
[4]; first compound 0.1581 µM
  relative viability: 0.628
[4]; first compound 0.5 µM
  relative viability: 0.632
[4]; first compound 1.581 µM
  relative viability: 0.567
[4]; first compound 5 µM
  relative viability: 0.432
[5]; first compound 0.05 µM
  relative viability: 0.426
[5]; first compound 0.1581 µM
  relative viability: 0.456
[5]; first compound 0.5 µM
  relative viability: 0.407
[5]; first compound 1.581 µM
  relative viability: 0.418
[5]; first compound 5 µM
  relative viability: 0.382
[6]; first compound 0.05 µM
  relative viability: 0.41
[6]; first compound 0.1581 µM
  relative viability: 0.399
[6]; first compound 0.5 µM
  relative viability: 0.538
[6]; first compound 1.581 µM
  relative viability: 0.851
[6]; first compound 5 µM
  relative viability: 0.322
[7]; 0.05 µM
  relative viability: 0.984
[7]; 0.1581 µM
  relative viability: 0.9
[7]; 0.5 µM
  relative viability: 1.04
[7]; 1.581 µM
  relative viability: 0.942
[7]; 5 µM
  relative viability: 0.755
